# Reference: patent US11801284B2, “Compositions and methods for treating motor neuron diseases” (The Trustees of Columbia University in the City of New York, priority 2017, dated 2023)
# How the values were obtained:
# luciferase = luciferase refolding assay (chaperone activity); format: biochemical; settings: crude yeast lysate from cells transfected with Hspa8^G470R or WT construct; FIG. 4
# Source text: Expt. 2A: Does the G470R mutation affect Hspa8 chaperone activity? There is a fine balance between the chaperone activity of Hspa8, which involves ATP and the co-chaperone proteins Sgt (small […] tetratricopeptide repeat-containing protein) and CSP (cysteine string protein), and its role in microautophagy, which is effected independently of ATP and the co-chaperones^36. Altering the ratio of Hspa8 with respect to its co-chaperones, or introducing mutations in certain Hspa8 domains, can shift the balance towards or away from microautophagy and thus alter neurotransmission at the NMJ. For instance, mutations in the ATPase domain disrupt chaperone activity but leave the role of Hspa8 in microautophagy intact. In contrast, mutations in the C-terminal domain of Hspa8, which mediate the interaction of the protein with the lysosomal/endosomal membrane, abolish microautophagy but fail to affect the ability of the protein to refold proteins (chaperone activity). […] To test this, we will examine the ability of Hspa8^G470R to refold luciferase. […] The bioluminescence from the luciferase will be assayed, following the addition of Luciferase Assay reagent (Promega), at regular intervals in a luminometer or plate reader. […]
# SMN = SMN levels in spinal cord tissue of SMA mice by western blotting; format: in vivo; settings: PND10 SMA mice, western blot, β-tubulin loading control; FIG. 7
# Experimental: PND10 mice of the indicated genotypes were euthanized, and the spinal cord tissue extracted to determine SMN levels by western blotting. β-tubulin was used as a loading control. Band intensities were determined using the NIH ImageJ software.
# S. cerevisae = experiment: in vivo microautophagy assay (vacuolar membrane invagination and intraluminal vesicle formation in yeast); format: cell-based; settings: in vivo study employing WT and Hspa8^G470R proteins
# Source text: Expt. 2B: Does the G470R mutation affect Hspa8-dependent microautophagy? Hspa8-dependent microautophagy relies on the ability of the protein to bind the lysosomal/endosomal membrane. In so doing, Hspa8 deforms the membrane to form tubules, a phenomenon that can be quantified using a “tubulation” assay^36. […] To test this, we will subject the two proteins and a control, Hspa8^3KA, that fails to deform membranes^36, to the tubulation assay. Essentially, bacterial lysate from E. coli over-expressing the different Hspa8 molecules will be combined with fluorescently labeled giant unilamellar vesicles (GUVs) made from a defined mixture of lipids that roughly mimic synaptic membranes^49, and the ability of the proteins to trigger membrane deformation/tubule formation will be assessed by fluorescence microscopy. To complement these in vitro experiments, we will assess the ability of Hspa8^G470R protein to deform membranes in vivo. For this, the protein and relevant controls will be separately expressed in S. cerevisae and vacuolar membrane invagination and intraluminal vesicle formation determined using a co-expressed Vba1-GFP construct as a marker^50.
substance,measurement,setting,value
Hspa8^G470R: mutant Hsp70 family member protein Hspa8 with G470R missense mutation in the substrate binding domain,chaperone activity (efficiency relative to lysate containing WT Hspa8),luciferase,only a third as efficient
same,SMN level in spinal cord tissue,SMN,increases SMN
same,competence in microautophagy assay,S. cerevisae,competent
